According to PubChem BioAssay (NCI):
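Method: 48-hour compound exposure of cells in 96-well plates, five concentrations, linear interpolation of endpoints. TGI: total growth inhibition.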

Legend:
Test in all cases: growth of human tumour cells (NCI), 48 h
[1] = system: LOX IMVI melanoma
[2] = system: SK-OV-3 ovarian
[3] = system: EKVX NSCLC
[4] = system: K-562 leukemia
[5] = system: MALME-3M melanoma
[6] = system: NCI-H522 lung
[7] = system: CCRF-CEM leukemia
[8] = system: HOP-62 NSCLC
[9] = system: SK-MEL-28 melanoma
[10] = system: DU-145 prostate
[11] = system: SF-539 CNS
[12] = system: MDA-N
[13] = system: NCI/ADR-RES ovarian
[14] = system: PC-3 prostate
[15] = system: OVCAR-3 ovarian
[16] = system: UACC-257 melanoma
[17] = system: SNB-19 CNS
[18] = system: OVCAR-5 ovarian
[19] = system: KM12 colon
[20] = system: ACHN renal
[21] = system: 786-0 renal
[22] = system: A549 NSCLC
[23] = system: SN12C renal
[24] = system: A498 renal
[25] = system: RPMI-8226 leukemia
[26] = system: HS 578T breast
[27] = system: HCC-2998 colon
[28] = system: M14 melanoma
[29] = system: MDA-MB-231 breast
[30] = system: HCT-15 colon
[31] = system: OVCAR-8 ovarian
[32] = system: SF-295 CNS
[33] = system: SW-620 colon
[34] = system: OVCAR-4 ovarian
[35] = system: HOP-92 NSCLC
[36] = system: UO-31 renal
[37] = system: U251 CNS
[38] = system: SK-MEL-5 melanoma
[39] = system: HL-60(TB) leukemia
[40] = system: SK-MEL-2 melanoma
[41] = system: T-47D breast
[42] = system: MOLT-4 leukemia
[43] = system: CAKI-1 renal
[44] = system: SNB-75 CNS
[45] = system: NCI-H460 lung
[46] = system: BT-549 breast
[47] = system: NCI-H23 lung
[48] = system: UACC-62 melanoma
[49] = system: COLO 205 colon
[50] = system: RXF 393 renal
[51] = system: HT29 colon
[52] = system: HCT-116 colon
[53] = system: SF-268 CNS
[54] = system: MDA-MB-435
[55] = system: TK-10 renal
[56] = system: NCI-H226 lung
[57] = system: SR leukemia
[58] = system: MCF7 breast

## O=C(c1ccc(Cl)c(Cl)c1)N(Cc1cccnc1)C(=S)N(Cc1cccnc1)C(=O)c1ccc(Cl)c(Cl)c1
[1]
  TGI: > 100 µM
[2]
  TGI: > 100 µM
[3]
  TGI: > 100 µM
[4]
  TGI: > 100 µM
[5]
  TGI: > 100 µM
[6]
  TGI: 41.9 µM
[7]
  TGI: > 100 µM
[8]
  TGI: 83.6 µM
[9]
  TGI: > 100 µM
[10]
  TGI: > 100 µM
[11]
  TGI: 45.5 µM
[12]
  TGI: > 100 µM
[13]
  TGI: > 100 µM
[14]
  TGI: 83.4 µM
[15]
  TGI: 78.3 µM
[16]
  TGI: 91.5 µM
[17]
  TGI: 88.4 µM
[18]
  TGI: 71.7 µM
[19]
  TGI: > 100 µM
[20]
  TGI: 36.2 µM
[21]
  TGI: 54.2 µM
[22]
  TGI: > 100 µM
[23]
  TGI: 52.2 µM
[24]
  TGI: 79.4 µM
[25]
  TGI: > 100 µM
[26]
  TGI: > 100 µM
[27]
  TGI: 39.8 µM
[28]
  TGI: 52.9 µM
[29]
  TGI: 99.1 µM
[30]
  TGI: 64.2 µM
[31]
  TGI: 84.5 µM
[32]
  TGI: 67.1 µM
[33]
  TGI: > 100 µM
[34]
  TGI: > 100 µM
[35]
  TGI: > 100 µM
[36]
  TGI: 33.2 µM
[37]
  TGI: > 100 µM
[38]
  TGI: 75.7 µM
[39]
  TGI: > 100 µM
[40]
  TGI: 95.7 µM
[41]
  TGI: > 100 µM
[42]
  TGI: > 100 µM
[43]
  TGI: > 100 µM
[44]
  TGI: > 100 µM
[45]
  TGI: > 100 µM
[46]
  TGI: 65.8 µM
[47]
  TGI: > 100 µM
[48]
  TGI: > 100 µM
[49]
  TGI: 32.2 µM
[50]
  TGI: 79.6 µM
[51]
  TGI: 65.1 µM
[52]
  TGI: 63.4 µM
[53]
  TGI: > 100 µM
[54]
  TGI: > 100 µM
[55]
  TGI: 79.8 µM
[56]
  TGI: > 100 µM
[57]
  TGI: > 100 µM
[58]
  TGI: > 100 µM

## COc1ccc(N2C(=O)CC(=O)N(C(=O)CCCCCCCCC(=O)N3C(=O)CC(=O)N(c4ccc(OC)cc4)C3=S)C2=S)cc1
[1]
  TGI: > 100 µM
[2]
  TGI: > 100 µM
[3]
  TGI: > 100 µM
[4]
  TGI: > 100 µM
[5]
  TGI: > 100 µM
[6]
  TGI: > 100 µM
[7]
  TGI: > 100 µM
[8]
  TGI: > 100 µM
[9]
  TGI: > 100 µM
[10]
  TGI: > 100 µM
[11]
  TGI: > 100 µM
[12]
  TGI: > 100 µM
[13]
  TGI: > 100 µM
[14]
  TGI: > 100 µM
[15]
  TGI: > 100 µM
[16]
  TGI: > 100 µM
[17]
  TGI: > 100 µM
[18]
  TGI: > 100 µM
[19]
  TGI: > 100 µM
[20]
  TGI: > 100 µM
[21]
  TGI: > 100 µM
[22]
  TGI: > 100 µM
[23]
  TGI: > 100 µM
[24]
  TGI: > 100 µM
[25]
  TGI: > 100 µM
[26]
  TGI: > 100 µM
[27]
  TGI: > 100 µM
[28]
  TGI: > 100 µM
[29]
  TGI: > 100 µM
[30]
  TGI: > 100 µM
[31]
  TGI: > 100 µM
[32]
  TGI: > 100 µM
[33]
  TGI: > 100 µM
[34]
  TGI: > 100 µM
[35]
  TGI: > 100 µM
[36]
  TGI: > 100 µM
[37]
  TGI: > 100 µM
[38]
  TGI: > 100 µM
[39]
  TGI: > 100 µM
[40]
  TGI: > 100 µM
[41]
  TGI: > 100 µM
[42]
  TGI: > 100 µM
[43]
  TGI: > 100 µM
[44]
  TGI: > 100 µM
[45]
  TGI: > 100 µM
[46]
  TGI: > 100 µM
[47]
  TGI: > 100 µM
[48]
  TGI: > 100 µM
[49]
  TGI: > 100 µM
[50]
  TGI: > 100 µM
[51]
  TGI: > 100 µM
[52]
  TGI: > 100 µM
[53]
  TGI: > 100 µM
[54]
  TGI: > 100 µM
[55]
  TGI: > 100 µM
[56]
  TGI: > 100 µM
[57]
  TGI: > 100 µM
[58]
  TGI: > 100 µM
